Assay results: publication PMC9817077, “Simple, Reliable Protocol for High-Yield Solubilization of Seedless Amyloid-β Monomer” (ACS Chemical Neuroscience, 2022)
Read-outs that look alike come from different tables or passages of the source.

Legend:
[1] = Thioflavin T (ThT) self-assembly (fibrillization) kinetics assay; type: physicochemical
Procedure: Peptide was prepared using either of the aforementioned protocols, with or without HFIP pretreatment, and self-assembly was initiated by rapid dilution into the fibrillization buffer to a final concentration of 1–10 μM peptide. […] The success of this strategy was confirmed empirically.
Self-assembly experiments were carried out in a 20 mM sodium phosphate buffer (pH 8) containing 200 μM EDTA, 1 mM NaN3, and 20 μM ThT. […] Correction can be carried out before or after this addition. However, if correction is carried out after the peptide has been added to the buffer stock, the peptide will already have begun to aggregate so that the delay could influence the results. In addition, adding acid to lower the pH would modify the buffer composition and increase the ionic strength from its intended value. As a better alternative, one can correct the pH in advance, by preparing a buffer stock that is more acidic than the final intended solution but reliably reaches the correct pH following the addition of a known quantity of NaOH and Aβ(1-42). Note that this correction is only necessary when preparing Aβ(1-42) solutions by direct addition of the peptide from NaOH stock and is not necessary when exchanging the peptide into the correct buffer by SEC.
The ratio of NaH2PO4 and Na2HPO4 in the 5× buffer stock was chosen to give the correct pH when mixed with the NaOH and other buffer constituents, and was initially based on calculation and subsequently optimized experimentally. The final intended quantities of H2PO4^– and HPO4^2– can be calculated from the Henderson-Hasselbalch eq.[97] Given an acid dissociation constant K2 ≈ 6.94 at the ionic strength of the self-assembly buffer,[98] one expects the final self-assembly buffer to contain approximately 1.6 mM H2PO4^– and 18.4 mM HPO4^2–. When NaOH is added to phosphate buffer, most of the hydroxide is consumed in the reaction OH^– + H2PO4^– → H2O + HPO4^2–. Therefore, if 10 mM NaOH is incorporated into the final buffer at 10% of the final volume, 1 mM H2PO4^– will be converted to 1 mM HPO4^2–. Thus, to achieve the correct final ratio of phosphate ions, the 5× buffer stock will need to contain 5 × (1.6 + 1.0) mM = 13 mM NaH2PO4 and 5 × (18.4 – 1.0) mM = 87 mM Na2HPO4. Similarly, if 50 mM NaOH is used, the 5× buffer stock will need to contain 5 × (1.6 + 5.0) mM = 33 mM NaH2PO4 and 5 × (18.4 – 5.0) mM = 67 mM Na2HPO4. In practice, these calculations were used to inform preparation of a test buffer stock, which was then used to prepare a test self-assembly buffer using the ratios described above. If the pH of this test solution was outside the 7.98–8.02 range, a new test buffer stock was prepared with a modified composition. […]

[2] = Re-freezing of thawed aliquots (AF4-MALS and ThT); type: physicochemical; conditions: 50 mM NaOH, 5 min sonication; re-frozen in liquid N2, on pre-cooled metal or in a rack at −80 °C
Procedure: 174 S6 Re-freezing of Aβ solubilized in 50 mM NaOH
177 used on multiple separate occasions. Aliquots that had been prepared by sonication for 5 min 178 in 50 mM NaOH were thawed and then re-frozen according to one of three methods: rapid 179 freezing by immersion in liquid N2 (freezing time < 1 s); freezing by placing the Eppendorf 180 tube in contact with pre-cooled metal at -80 °C (< 1 min); and simply placing the sample 181 in a rack in the -80 °C freezer (< 5 min). While the former was obviously preferable, the 182 other two methods were tested due to their convenience, and to ascertain whether improper […]
185 indistinguishable the results obtained with ﬁrst-use aliquots (Figures 3-4 in the main text), […]
Therefore, Aβ(1-42) aliquots
187 […] 188 convenient when performing a range of experiments requiring diﬀerent quantities of peptide.
190 temperature is -80 °C, use of liquid N2 is still recommended whenever possible.
The corresponding LS 90o signal. (c) The normalized ThT self-assembly kinetics. All panels use the same color scheme, which encodes the re-freezing method: red, placement in a rack in the -80 °C freezer; green, freezing by placement in contact with pre-cooled metal at -80 °C; blue, rapid freezing by immersion in liquid N2.
(1 picture or pasted object on this page, not shown here)

[3] = cited from earlier work
Excerpt: The concentration dependence is significant as it reflects the ... || The nature and reaction order of the dominant processes responsible for generating fibrils can be inferred from the scaling exponent γ, which relates the polymerization half-time to the initial monomer concentration, τhalf ∝ m0^γ. If secondary processes are negligible so that primary nucleation dominates, then γ = −nc/2, where nc is the effective order of primary nucleation.[91],[92] If most new fibrils are formed by fragmentation of existing fibrils, then γ = −1/2.[88],[89]

[4] = fluorescence-based assays, cited from earlier work
Procedure: Aβ samples that are stored in a lyophilized form are often re-solubilized by treatment with a dilute base such as 1–10 mM NaOH or 0.02–1% NH4OH.[41],[46],[48],[53],[56],[57] These treatments would be expected to give a pH of 10.6–12.0, in the absence of any partial neutralization of the solvent. […] In addition, many st ...

Aβ(1-42): Ultrapure recombinant Aβ(1-42) purchased from rPeptide, lyophilized from HFIP; disordered amyloid-forming peptide
initial ThT fluorescence ([1]; 50 mM NaOH samples, 4 μM peptide, 20 mM sodium phosphate pH 8, 37 °C, mean): 2.2 % of final fluorescence
fibrillization half-time τhalf ([1]; commercial recombinant samples solubilized in 50 mM NaOH, 20 mM sodium phosphate pH 8, 37 °C, concentration not given): 7700 ± 380 s
scaling exponent γ ([1]; commercial recombinant, 5 min sonication in 50 mM NaOH (sample 50-5-N-13), fit of mean half-times 1.5–4.0 μM, 20 mM sodium phosphate pH 8, 37 °C): −1.32
scaling exponent γ (slope of half-time vs Aβ(1-42) concentration, double-logarithmic) ([1]; re-solubilized in 10 mM NaOH with or without HFIP pretreatment, 1–5 μM peptide, 20 mM sodium phosphate pH 8.0, 200 μM EDTA, 1 mM NaN3, 20 μM ThT, 37 °C, average, SD 0.24 across 9 peptide samples): −1.04
AF4-MALS elugrams and ThT kinetics of re-frozen peptide against first-use aliquots [2]: indistinguishable
scaling exponent γ ([3]; high-quality in-house recombinant preparations, same experimental conditions): ≈ −1.3
fibrillization half-time τhalf ([3]; in-house recombinant preparations, ref Silvers et al. 75): ≈ 2000 s
pH threshold for complete elimination of self-assembly [4]: 11.0–12.0 pH
approximate timescale of limited aggregation ([4]; pH 11.0): several hundred seconds
